#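 Dose response: 5 concentrations. Exposure: 48 h. Format: 96-well plates. Endpoint: linear interpolation; highest concentration if not reached. At the GI50, growth is halved.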 Active and inactive are the calls of the source. Rule as the data show it: active = GI50 up to about 1.1 µM and inactive = higher.
# How the values were obtained:
# Test in all cases: NCI-60 cell line screen, 48 h
# [1] = test system: HCT-116
# [2] = test system: DU-145
# [3] = test system: T47D
# [4] = test system: M14
# [5] = test system: UACC-62
# [6] = test system: HCT-15
# [7] = test system: SK-MEL-2
# [8] = test system: EKVX
# [9] = test system: OVCAR-4
# [10] = test system: MDA-N
# [11] = test system: MCF7
# [12] = test system: HOP-92
# [13] = test system: SK-MEL-5
# [14] = test system: SN12C
# [15] = test system: SK-OV-3
# [16] = test system: A549
# [17] = test system: Hs-578T
# [18] = test system: SF-539
# [19] = test system: SK-MEL-28
Structure (SMILES),GI50 [1],GI50 [2],GI50 [3],GI50 [4],GI50 [5],GI50 [6],GI50 [7],GI50 [8],GI50 [9],GI50 [10],GI50 [11],GI50 [12],GI50 [13],GI50 [14],GI50 [15],GI50 [16],GI50 [17],GI50 [18],GI50 [19]
Cc1cc2c(=Cc3ccc(N(C)C)cc3)c3ccccc3n2[n+]1C,0.365 µM (active),0.713 µM (active),0.282 µM (active),1.05 µM (active),1.4 µM (inactive),12.3 µM,0.652 µM (active),1.02 µM (active),0.641 µM (active),0.383 µM (active),0.396 µM (active),0.459 µM (active),0.414 µM (active),0.304 µM (active),1.44 µM (inactive),0.632 µM (active),0.628 µM (active),0.641 µM (active),1.2 µM (inactive)
CC(O)C1(CNc2cc(Cl)nc(N)n2)CCC1 (stereo unspecified),> 100 µM (inactive),> 100 µM (inactive),33.3 µM (inactive),,89.9 µM (inactive),> 100 µM,> 100 µM (inactive),59.3 µM (inactive),> 100 µM (inactive),> 100 µM (inactive),> 100 µM (inactive),> 100 µM (inactive),70.1 µM (inactive),> 100 µM (inactive),> 100 µM (inactive),> 100 µM (inactive),> 100 µM (inactive),> 100 µM (inactive),> 100 µM (inactive)
C=C1C(=O)O[C@@H]2C[C@@]3(C)CCC[C@H](C)C3=C[C@H]12 [HELENINE],4.45 µM (inactive),12 µM (inactive),2.64 µM (inactive),3.08 µM (inactive),6.46 µM (inactive),4.3 µM,3.24 µM (inactive),15 µM (inactive),4.49 µM (inactive),4.66 µM (inactive),4.58 µM (inactive),2.43 µM (inactive),4.8 µM (inactive),3.01 µM (inactive),22 µM (inactive),16.1 µM (inactive),4.99 µM (inactive),10.6 µM (inactive),8 µM (inactive)
CC1=[N+]([O-])C2(CCCC2)N(O)C1(C)C,> 100 µM (inactive),> 100 µM (inactive),> 100 µM (inactive),> 100 µM (inactive),> 100 µM (inactive),> 100 µM,> 100 µM (inactive),> 100 µM (inactive),> 100 µM (inactive),> 100 µM (inactive),> 100 µM (inactive),> 100 µM (inactive),> 100 µM (inactive),> 100 µM (inactive),> 100 µM (inactive),> 100 µM (inactive),> 100 µM (inactive),> 100 µM (inactive),> 100 µM (inactive)
O=c1cnn(C2OC(C(O)CO)C(O)C2O)c(=O)[nH]1 (stereo unspecified),> 100 µM (inactive),> 100 µM (inactive),> 100 µM (inactive),> 100 µM (inactive),> 100 µM (inactive),> 100 µM,> 100 µM (inactive),> 100 µM (inactive),> 100 µM (inactive),> 100 µM (inactive),> 100 µM (inactive),> 100 µM (inactive),> 100 µM (inactive),> 100 µM (inactive),> 100 µM (inactive),> 100 µM (inactive),> 100 µM (inactive),> 100 µM (inactive),> 100 µM (inactive)
O=C(C/C(=N/O)C(=O)NC1=C(Cl)C(=O)c2ccccc2C1=O)CC(c1ccccc1)c1c(O)c2ccccc2oc1=O (stereo unspecified),4.51 µM (inactive),3.27 µM (inactive),12.1 µM (inactive),4.59 µM (inactive),3.14 µM (inactive),3.16 µM,10.6 µM (inactive),14.5 µM (inactive),10 µM (inactive),1.72 µM (inactive),6.85 µM (inactive),22.3 µM (inactive),1.12 µM (inactive),8.97 µM (inactive),39 µM (inactive),5.69 µM (inactive),6.76 µM (inactive),8.11 µM (inactive),7.43 µM (inactive)
Cc1cc(/N=C/c2ccc(Cl)cc2)n(-c2ccccc2)n1,26.2 µM (inactive),50.9 µM (inactive),16.7 µM (inactive),48.6 µM (inactive),54.2 µM (inactive),19 µM,53.5 µM (inactive),33 µM (inactive),33.4 µM (inactive),32.2 µM (inactive),32.2 µM (inactive),48 µM (inactive),27.6 µM (inactive),39.4 µM (inactive),67.9 µM (inactive),45.3 µM (inactive),58.7 µM (inactive),> 100 µM (inactive),44.6 µM (inactive)
CCOC(=O)C1=CNC2=N[C@H]3CCCC[C@@H]3N2C1=O,> 100 µM (inactive),> 100 µM (inactive),> 100 µM (inactive),> 100 µM (inactive),> 100 µM (inactive),> 100 µM,> 100 µM (inactive),> 100 µM (inactive),> 100 µM (inactive),> 100 µM (inactive),> 100 µM (inactive),> 100 µM (inactive),> 100 µM (inactive),> 100 µM (inactive),> 100 µM (inactive),> 100 µM (inactive),> 100 µM (inactive),> 100 µM (inactive),> 100 µM (inactive)
C[C@]12CC[C@@H]3c4ccc(OS(N)(=O)=O)cc4CC[C@H]3[C@@H]1CCC2=O [EMATE],30.2 µM (inactive),42.7 µM (inactive),29 µM (inactive),38.9 µM (inactive),37.6 µM (inactive),38 µM,37.5 µM (inactive),5.07 µM (inactive),57.7 µM (inactive),31.6 µM (inactive),36.5 µM (inactive),> 100 µM (inactive),13.5 µM (inactive),81.3 µM (inactive),> 100 µM (inactive),35 µM (inactive),10.5 µM (inactive),52.2 µM (inactive),95.1 µM (inactive)
CCOP(=O)(OCC)/C(F)=C/c1ccccc1,> 100 µM (inactive),> 100 µM (inactive),> 100 µM (inactive),> 100 µM (inactive),> 100 µM (inactive),> 100 µM,> 100 µM (inactive),> 100 µM (inactive),> 100 µM (inactive),> 100 µM (inactive),> 100 µM (inactive),> 100 µM (inactive),> 100 µM (inactive),> 100 µM (inactive),> 100 µM (inactive),> 100 µM (inactive),> 100 µM (inactive),> 100 µM (inactive),> 100 µM (inactive)
CCSCCCCC(c1ccc(O)cc1)C(C)(CC)c1ccc(O)cc1 (stereo unspecified),17.9 µM (inactive),> 100 µM (inactive),14.4 µM (inactive),31 µM (inactive),27.2 µM (inactive),18.4 µM,16 µM (inactive),29.6 µM (inactive),21.7 µM (inactive),23.2 µM (inactive),27.4 µM (inactive),19.3 µM (inactive),18.2 µM (inactive),33.1 µM (inactive),21.1 µM (inactive),25.4 µM (inactive),23.6 µM (inactive),20 µM (inactive),18 µM (inactive)
CC(C)(C)OC(=O)N1CCc2c(n(C/C=C/c3ccccc3)[nH]c2=O)C1,> 100 µM (inactive),> 87.9 µM (inactive),46.7 µM (inactive),> 100 µM (inactive),> 100 µM (inactive),> 100 µM,> 100 µM (inactive),> 83.8 µM (inactive),97.1 µM (inactive),> 100 µM (inactive),65.3 µM (inactive),> 53.5 µM (inactive),34.4 µM (inactive),> 100 µM (inactive),> 100 µM (inactive),> 100 µM (inactive),> 100 µM (inactive),> 100 µM (inactive),> 100 µM (inactive)
Cc1ccc(CC(=O)Nc2ccc(NC(=O)CNC(=O)/C=C/c3ccc(-c4ccccc4)cc3)cc2C(=O)c2ccccc2)cc1,1.36 µM (inactive),2.49 µM (inactive),1.76 µM (inactive),4.81 µM (inactive),13.1 µM (inactive),3.69 µM,13.9 µM (inactive),3.47 µM (inactive),,4.74 µM (inactive),1.82 µM (inactive),4.17 µM (inactive),1.69 µM (inactive),2.74 µM (inactive),10.7 µM (inactive),2.03 µM (inactive),4.71 µM (inactive),2.7 µM (inactive),11.7 µM (inactive)
CCSC1=CC(=O)c2nc3ccccc3c3ccnc1c23,2.72 µM (inactive),10.8 µM (inactive),11.2 µM (inactive),2.38 µM (inactive),2.05 µM (inactive),2.31 µM,1.91 µM (inactive),2.58 µM (inactive),2.69 µM (inactive),1.95 µM (inactive),1.88 µM (inactive),11.4 µM (inactive),,2.64 µM (inactive),49 µM (inactive),7.8 µM (inactive),3.14 µM (inactive),5.43 µM (inactive),10.1 µM (inactive)
NC(=S)Nc1nc(=S)[nH]c2[nH]ccc12,90.8 µM (inactive),> 100 µM (inactive),58.2 µM (inactive),> 100 µM (inactive),91 µM (inactive),41.7 µM,> 100 µM (inactive),94.2 µM (inactive),,98.2 µM (inactive),91.2 µM (inactive),> 100 µM (inactive),15.3 µM (inactive),> 100 µM (inactive),> 100 µM (inactive),> 100 µM (inactive),23.4 µM (inactive),> 100 µM (inactive),> 100 µM (inactive)
